Assay results reported in publication PMC7228129, “Evaluation of Developmental Toxicity, Developmental Neurotoxicity, and Tissue Dose in Zebrafish Exposed to GenX and Other PFAS” (Environmental Health Perspectives, 2020).
pEC50: −log10 of the molar value. Entries after “also recorded” stand apart in the source; their conditions may differ.

Key:
zebrafish [1] = assay: Developmental neurotoxicity (DNT) assay, light/dark locomotor behavior test; type: in vivo, Danio rerio; settings: for Developmental neurotoxicity / locomotor activity outcome / Concentration causing hyperactivity in D1 period / Concentration causing hyperactivity in D2 period / Concentration causing hyperactivity in L2 period / Concentration causing hyperactivity in L1 period: tested 6 dpf; for DNT assay phenotype: Table 5 summary, this study (some rows also list literature); for Concentration causing hyperactivity in D1 period: dark 1; for Concentration causing hyperactivity in D1 period / Concentration causing hyperactivity in D2 period / Concentration causing hyperactivity in L2 period / Concentration causing hyperactivity in L1 period: daily 0–5 dpf, vs 0.4% DMSO; for Concentration causing hyperactivity in D2 period: dark 2; for Concentration causing hyperactivity in L2 period: light 2
Protocol: (§1) At 0 dpf, zebrafish embryos were bleached as previously described ([Tal et al. 2017]). A single embryo at the dome-to-epiboly stages ([Kimmel et al. 1995]) was placed into each individual well of a 96-well plate containing a 40-μm nylon mesh filter (Millipore, Catalog No. MANMN4010) with 400μL of 10% Hanks’ balanced salt solution (HBSS) per well. Filter inserts containing zebrafish embryos were transferred to 96-well culture trays (Millipore, Catalog No. MAMCS9610) containing 250μL of 10% HBSS ([Westerfield 2007]) and 1μL of 250× working solutions per well. A final concentration of 0.4% DMSO was used for all exposure groups and as a vehicle control. In the case of GenX Free Acid in Study 2 (Figure 1), DI water was used as a vehicle control. Daily, from 1–5 dpf, plates underwent 100% media changes to refresh chemical dosing solutions by blotting (Brandel; Catalog No. FPXLR-196) and transferring mesh inserts containing zebrafish to new bottom plates (Millipore; Catalog No. MAMCS9610). To minimize evaporation, plates were sealed (Biorad; Catalog No. MSA5001) and wrapped with parafilm. Plates were maintained on a 14 h:10 h light cycle at 26.0°C and scored daily for death, malformations, hatching, and swim bladder inflation. At 6 dpf, plates were evaluated by two independent observers and DevTox or DNT assays were performed or media and tissue were collected for analytical chemistry analyses as described below.
To increase the likelihood of observing behavioral effects in morphologically normal larvae, the highest concentration evaluated in the DNT assay was the lowest observed effect concentration (LOEC) determined in DevTox assay. Zebrafish were exposed in parallel to 4.4, 7.9, 14.0, 25.1, 44.8, or 80.0μM PFOA, PFHxS, PFHxA, or ADONA or 0.2, 0.3, 0.6, 1.0, 1.8, or 3.1μM PFOS or 0.4% DMSO. Subsequently, as part of Study 1, exposure to 4.4, 7.9, 14.0, 25.1, 44.8, or 80.0μM PFESA1, or 0.4% DMSO was evaluated. In Study 2, zebrafish were exposed to 4.4, 7.9, 14.0, 25.1, 44.8, or 80.0μM GenX Free Acid, or DI water. In Study 3, to increase the likelihood of observing malformations with shorter-chain compounds at multiple test concentrations, the highest concentration evaluated was 100.0μM . Zebrafish were exposed to 5.5, 9.8, 17.6, 31.4, 56.0, or 100.0μM PFBS; 3.1, 5.5, 9.8, 17.6, 31.4, or 56.0μM PFHxS; 1.7, 3.1, 5.5, 9.8, 17.6, or 31.4μM PFHpS; or 0.5, 1.0, 1.7, 3.1, 5.5, or 9.8μM PFOS, or 0.4% DMSO. Subsequently, as part of Study 3, zebrafish were exposed to 3.1, 5.5, 9.8, 17.6, 31.4, or 56.0μM PFPeS, or 0.4% DMSO. Chemical exposures and assessments were performed daily, as described above. To evaluate swimming behavior in a light/dark behavior test, microtiter plates were placed in a dark, temperature-controlled behavior testing room set to 26.0°C for at least 2 h prior to testing. At the time of testing, microtiter plates were placed on a Noldus tracking apparatus. Locomotor activity was recorded (30 frames/s) for a total of 60 min consisting of a 20-min dark acclimation period (0 lux) that was not analyzed followed by a 40-min testing period consisting of a 20-min light period (5.0 lux) and 20-min dark period (0 lux). Videos were analyzed using Ethovision software (version 3.1; Noldus Information Technology) as previously described ([Jarema et al. 2015]). Locomotor activity was collected for each individual fish for each 2-min period (minimum distance moved, set to 0.135cm ). Thus, for a 40-min test, 20 data points were collected per larvae. […] Four additional criteria for inclusion of individual larvae were applied. One, all larvae that were identified as abnormal, severely abnormal, or dead were excluded. Two, larvae with uninflated swim bladders were removed from analyses. Three, individual larvae that moved <2cm in either […] dark period were removed.

zebrafish [2] = assay: Developmental toxicity (DevTox) assay; type: in vivo, Danio rerio; settings: for Developmental toxicity outcome / pEC50: scored 6 dpf; for DevTox assay phenotype: Table 5 summary, this study (some rows also list literature); for pEC50: Hill fit
Protocol: as §1
In Study 1 (Figure 1), zebrafish were exposed, as described in the “Chemical Exposures” section, to 0.04, 0.1, 0.4, 1.1, 3.1, 9.3, 27.2, or 80.0μM PFOS, PFOA, PFHxS, PFHxA, or ADONA, or 0.4% DMSO. Six 96-well plates were tested with a single chemical concentration included on each microtiter plate. Subsequently, as part of Study 1, zebrafish were exposed to 0.04, 0.1, 0.4, 1.1, 3.1, 9.3, 27.2, or 80.0μM PFESA1, or 0.4% DMSO. In Study 2, GenX Free Acid diluted in DI water was tested by exposing zebrafish to 0.04, 0.1, 0.4, 1.1, 3.1, 9.3, 27.2, or 80.0μM of the compound or DI water. […] Zebrafish were exposed to 1.7, 3.1, 5.5, 9.8, 17.6, 31.4, 56.0, or 100.0μM of PFBS, PFHxS, PFHpS, or PFOS or 0.4% DMSO. Subsequently, zebrafish were exposed to 1.7, 3.1, 5.5, 9.8, 17.6, 31.4, 56.0, or 100.0μM PFPeS, or 0.4% DMSO. Chlorpyrifos was used as positive control for malformations ( 8.0μM ) and lethality ( 80.0μM ) ([Padilla et al. 2012]; [Tal et al. 2017]). To conduct DevTox assay assessments, at 6 dpf, two independent observers evaluated zebrafish larvae for survival, hatching, swim bladder inflation, and malformations, including curved body axis, shortened trunk, pericardial edema, yolk sac edema, necrotic yolk sac, pectoral fin abnormalities and head/jaw abnormalities. Directly after assessments, data were reviewed and, in the case of discrepancies, consensus calls were reached. Toxicity values were assigned to descriptive data (i.e., normal=0 , abnormal=20 , severely abnormal=50 , and dead=100 ), modified from a previously described approach ([Padilla et al. 2012]). Briefly, animals with a single malformation were scored as abnormal, whereas animals with ≥2 malformations were scored as severely abnormal.
For the DevTox assay, a Kruskal-Wallace nonparametric one-way analysis of variance (ANOVA) with a Dunn’s multiple comparison test was used to detect differences between exposure groups (* p<0.05 , ** p<0.0001 ) and LOEC values were determined. If a test for linear trend was significant ( p<0.05 ), with developmental toxicity observed at the highest concentration tested, nonlinear regression was performed with a Hill slope curve fitting for half maximal effective concentration ( EC50 ) value determinations.

[3] = Study 1, 4.4–80.0 μM daily 0–5 dpf, 0.4% DMSO
[4] = Study 1, 0.04–80.0 μM daily 0–5 dpf, 0.4% DMSO
[5] = Study 1, light 1 (first 10 min light)
[6] = Danio rerio, Study 1, 0.04–80.0 μM daily 0–5 dpf, 0.4% DMSO
[7] = Danio rerio, Study 3, 1.7–100.0 μM daily 0–5 dpf, 0.4% DMSO

Row | Compound | Developmental neurotoxicity / locomotor activity outcome (zebrafish [1]; [3]) | DNT assay phenotype (zebrafish [1]) | Developmental toxicity outcome (zebrafish [2]; [4]) | DevTox assay phenotype (zebrafish [2]) | Developmental neurotoxicity / locomotor activity outcome (zebrafish [1]; Study 2, 4.4–80.0 μM in DI water daily 0–5 dpf) | Developmental toxicity outcome (zebrafish [2]; Study 2, 0.04–80.0 μM in DI water daily 0–5 dpf) | Concentration causing hyperactivity in D1 period (zebrafish [1]; Study 1) [µM] | Concentration causing hyperactivity in D2 period (zebrafish [1]; Study 1) [µM] | Concentration causing hyperactivity in L2 period (zebrafish [1]; Study 1) [µM] | Concentration causing hyperactivity in L1 period (zebrafish [1]; [5]) [µM] | Concentration causing hyperactivity in D1 period (zebrafish [1]; Study 3) [µM] | Concentration causing hyperactivity in D2 period (zebrafish [1]; Study 3) | Concentration causing hyperactivity in L2 period (zebrafish [1]; Study 3) [µM] | pEC50 (zebrafish [2]; [6]) | pEC50 (zebrafish [2]; [7]) | Concentration causing hyperactivity in L1 period (zebrafish [1]; Study 3, light 1) [µM] | pEC50 (zebrafish [2]; [4]) | pEC50 (zebrafish [2]; Study 3, 1.7–100.0 μM daily 0–5 dpf, 0.4% DMSO)
1 | O=C(O)C(F)(F)C(F)OC(F)(F)C(F)(F)C(F)(F)OC(F)(F)F (centres unmarked) [ADONA, 4,8-Dioxa-3H-perfluorononanoate] | did not exhibit differences in locomotor activity; also recorded: failed to provoke developmental toxicity or developmental neurotoxicity; also recorded: negative | Negative^a | did not cause concentration-dependent effects on survival or development; also recorded: failed to provoke developmental toxicity or developmental neurotoxicity; also recorded: negative | Negative^a |  |  |  |  |  |  |  |  |  |  |  |  |  | 
2 | O=C(O)C(F)(OC(F)(F)C(F)(F)C(F)(F)F)C(F)(F)F (centres unmarked) [GenX Free Acid, Perfluoro-2-propoxypropanoic acid] |  | Negative^a |  | Negative^a | negative; also recorded: failed to provoke developmental toxicity or developmental neurotoxicity | negative; also recorded: failed to provoke developmental toxicity or developmental neurotoxicity |  |  |  |  |  |  |  |  |  |  |  | 
3 | O=S(=O)(O)C(F)(F)C(F)(F)OC(F)(C(F)(F)F)C(F)(F)OC(F)=C(F)F (centres unmarked) [PFESA1, Perfluoro-3,6-dioxa-4-methyl-7-octene-1-sulfonic acid] | did not exhibit differences in locomotor activity; also recorded: failed to provoke developmental toxicity or developmental neurotoxicity; also recorded: negative | Negative^a | did not cause concentration-dependent effects on survival or development; also recorded: failed to provoke developmental toxicity or developmental neurotoxicity; also recorded: negative | Negative^a |  |  |  |  |  |  |  |  |  |  |  |  |  | 
4 | O=C(O)C(F)(F)C(F)(F)C(F)(F)C(F)(F)C(F)(F)F [PFHxA, Perfluorohexanoic acid] | hyperactivity in the L2, D1, and D2 periods | Hyperactivity^a | did not cause concentration-dependent effects on survival or development; also recorded: no observed developmental toxicity identified at the highest concentration tested | Negative |  |  | 14.0 to 25.1 | 14.0 to 25.1 | 25.1 |  |  |  |  |  |  |  |  | 
5 | O=S(=O)(O)C(F)(F)C(F)(F)C(F)(F)C(F)(F)C(F)(F)C(F)(F)F [PFHxS, Perfluorohexanesulfonic acid] |  | Hyperactivity^a | same morphological phenotypes as PFOS | Positive |  |  |  |  | 14.0 | 14.0 to 25.1 | 17.6 | 17.6 µM | 17.6 to 31.4 | 4.03 | 3.64 |  |  | 
6 | O=C(O)C(F)(F)C(F)(F)C(F)(F)C(F)(F)C(F)(F)C(F)(F)C(F)(F)F [PFOA, Perfluoro-n-octanoic acid] | did not exhibit differences in locomotor activity; also recorded: negative | Negative | did not cause concentration-dependent effects on survival or development; also recorded: negative | Negative |  |  |  |  |  |  |  |  |  |  |  |  |  | 
7 | O=S(=O)(O)C(F)(F)C(F)(F)C(F)(F)C(F)(F)C(F)(F)C(F)(F)C(F)(F)C(F)(F)F [PFOS, Perfluorooctanesulfonic acid] |  | Hyperactivity | failed swim bladder inflation and ventroflexion of the tail | Positive |  |  | 0.6 to 1.8 |  | 0.6 to 1.8 | 1.0 | 1.0 | no effect | 1.7 to 3.1 | 5.12 | 4.55 | 1.7 to 3.1 | 5.12 | 4.55
